Experimental data as given in patent US20260137687A1, “GTPase INHIBITORS AND USES THEREOF” (The Regents of The University of California, priority 2022, published 2026).

Assays:
K-Ras G12D = K-Ras G12D (Homo sapiens, UniProt P01116, G12D); assay: Intact protein mass spectrometry, covalent modification; format: binding; conditions: extended incubation at pH 7.5; 50 μM, 16 h
Procedure: (§1) Purified K-Ras variants (4 μM final) were incubated with compounds at 50 or 100 μM (1% v/v DMSO final) in 20 mM HEPES pH 7.5, 150 mM NaCl, 1 mM MgCl2 in a total volume of 150 μL. After the noted time, the samples were analyzed by intact protein LC/MS using a Waters Xevo G2-XS system equipped with an Acquity UPLC BEH C4 1.7 μm column. The mobile phase was a linear gradient of 5-95% acetonitrile/water+0.05% formic acid. The spectra were processed using QuantLynx, giving the ion counts observed for the most abundant species. For assays conducted under an alternate pH, the HEPES buffer was replaced with one of the following buffers (maintaining 150 mM NaCl and 1 mM MgCl2): 20 mM MES pH 6 or 20 mM Tris pH 9.

K-Ras G12V = K-Ras G12V (Homo sapiens, UniProt P01116, G12V); assay: as above; format: binding; conditions: extended incubation at pH 7.5; 50 μM, 16 h
Procedure: as §1

K-Ras Q61K = K-Ras Q61K (Homo sapiens, UniProt P01116, Q61K); assay: as above; format: binding; conditions: extended incubation at pH 7.5; 50 μM, 16 h
Procedure: as §1

K-Ras Q61L = K-Ras Q61L (Homo sapiens, UniProt P01116, Q61L); assay: as above; format: binding; conditions: extended incubation at pH 7.5; 50 μM, 16 h
Procedure: as §1

K-Ras Q61R = K-Ras Q61R (Homo sapiens, UniProt P01116, Q61R); assay: as above; format: binding; conditions: extended incubation at pH 7.5; 50 μM, 16 h
Procedure: as §1

K-Ras(G12R)·GDP = biological target: T1, K-Ras(G12R)·GDP (Homo sapiens, UniProt P01116, G12R); assay: as above; format: binding; conditions: for reaction rate with K-Ras(G12R)·GDP: 50 μM
T1 construct: human K-Ras (G12R, aa 1-169); 6xHis tag + TEV cleavage site (N, cleaved yes); made in house; host or cells: E. coli BL21(DE3)
Procedure: as §1

K-Ras(G12R)·GppNHp = biological target: T2, K-Ras(G12R)·GppNHp (Homo sapiens, UniProt P01116, C118S/C51S/C80L/G12R); assay: as above; format: binding; conditions: after 72 h; 50 μM
T2 construct: human K-Ras G12R Cyslight (G12R/C51S/C80L/C118S, aa 1-169); 6xHis tag + TEV cleavage site (N, cleaved yes); made in house; host or cells: E. coli BL21(DE3)
Procedure: as §1

wildtype (WT) K-Ras·GDP = biological target: T3, wildtype (WT) K-Ras·GDP (Homo sapiens, UniProt P01116); assay: as above; format: binding; conditions: extended incubation at pH 7.5; 50 μM
T3 construct: human K-Ras (wildtype, aa 1-169); 6xHis tag + TEV cleavage site (N, cleaved yes); made in house; host or cells: E. coli BL21(DE3)
Procedure: as §1

[1] = tested on: BaF3/G12R cells (±IL-3), TCC-Pan-2 cells, and A375 cells; assay: Cellular activity (phospho-ERK immunoblot, growth inhibition); format: cell-based; conditions: at concentrations below 100 μM
Procedure: When indicated, cells were treated with drugs at 40-60% confluency at a final DMSO concentration of 1%. At the end of treatment period, cells were placed on ice. Unless otherwise indicated, adherent cells were washed once with ice-cold PBS (1 mL), scraped with a spatula, and pelleted by centrifugation (500×g, 5 min). Suspension cells were pelleted by centrifugation (500×g, 5 min), washed with 1 mL ice-cold PBS, and pelleted again. Cells were lysed in RIPA buffer supplemented with protease and phosphatase inhibitors (cOmplete and phosSTOP, Roche) on ice for 10 min. Lysates were clarified by high-speed centrifugation (19,000×g, 10 min). Concentrations of lysates were determined with protein BCA assay (Thermo Fisher) and adjusted to 2 mg/mL with additional RIPA buffer (or Co-IP Lysis Buffer). Samples were mixed with 5×SDS Loading Dye and heated at 95° C. for 5 min.
Cells were seeded into 96-well white flat bottom plates (1,000 cells/well) (Corning) and incubated overnight. Cells were treated with the indicated compounds in a nine-point threefold dilution series (100 μL final volume) and incubated for 72 h. Cell viability was assessed using a commercial CellTiter-Glo (CTG) luminescence-based assay (Promega). […] Plates were placed on an orbital shaker for 30 min before recording luminescence using a Spark 20M (Tecan) plate reader.

K-Ras(G12R) = K-Ras(G12R) (Homo sapiens, UniProt P01116, G12R); assay: Lysate target engagement assay (anti-Ras immunoblot); format: binding; parameters: pMSCV-Puro plasmids containing full length human KRAS genes (G12R); expressed in transfected cells; host or cells: Ba/F3 (mouse) transduced with pMSCV-Puro KRAS(G12R); lysate
Procedure: For co-treatment with recombinant K-Ras(G12R), Ba/F3(G12R) cells were lysed with NP-40 buffer and adjusted to 1.5 mg/mL. A 0.1 μM solution of recombinant K-Ras(G12R) was prepared in NP-40 buffer. 18 μL of Ba/F3 lysate were added to 4 μL of a 0.5 mM solution of 3 containing 10% DMSO in NP-40 buffer or DMSO as control. 18 μL of recombinant K-Ras(G12R) solution or NP-40 was added and the mixtures were incubated for 16 h at 23° C. Subsequently samples were mixed with 5×SDS Loading Dye and heated at 95° C. for 5 min.
Unless otherwise noted, SDS-PAGE was run with Novex 12% Bis-Tris gel (Invitrogen) in MES running buffer (Invitrogen) at 200 V for 60 min following the manufacturer's instructions. Protein bands were transferred onto 0.2-μm nitrocellulose membranes (Bio-Rad) using a wet-tank transfer apparatus (Bio-Rad Criterion Blotter) in 1×TOWBIN buffer with 10% methanol at 75V for 45 min. Membranes were blocked in 5% BSA-TBST for 1 h at 23° C. Primary antibody binding was performed with the indicated antibodies diluted in 5% BSA-TBST at 4° C. for at least 16 h. After washing the membrane three times with TBST (5 min each wash), secondary antibodies (goat anti-rabbit IgG-IRDye 800 and goat anti-mouse IgG-IRDye 680, Li-COR) were added as solutions in 5% skim milk-TBST at the dilutions recommended by the manufacturer. Secondary antibody binding was allowed to proceed for 1 h at 23° C. The membrane was washed three times with TBST (5 min each wash) and imaged on a Li-COR Odyssey fluorescence imager.

CC(=O)C(O)(O)C(=O)N1[C@@H]2CC[C@H]1CN(c1nc(OCC34CCCN3CCC4)nc3c(F)c(-c4cccc5cccc(Cl)c45)ncc13)C2 [compound 3, 1-((1R,5S)-3-(7-(8-chloronaphthalen-1-yl)-8-fluoro-2-((tetrahydro-1H-pyrrolizin-7a(5H)-yl)methoxy)pyrido[4,3-d]pyrimidin-4-yl)-3,8-diazabicyclo[3.2.1]octan-8-yl)-2,2-dihydroxybutane-1,3-dione]
covalent modification of K-Ras G12D (K-Ras G12D): did not modify | covalent modification of K-Ras G12V (K-Ras G12V): did not modify | covalent modification of K-Ras Q61K (K-Ras Q61K): did not modify | covalent modification of K-Ras Q61L (K-Ras Q61L): did not modify | covalent modification of K-Ras Q61R (K-Ras Q61R): did not modify | modification of surface exposed arginines of K-Ras (K-Ras(G12R)·GDP): not modified | covalent adduct formation with recombinant K-Ras(G12R)·GDP (K-Ras(G12R)·GDP; 100 μM compound, pH 7.5, 23° C., adducts +656 Da and +638 Da): stoichiometric covalent adduct | reaction rate with K-Ras(G12R)·GDP (K-Ras(G12R)·GDP; pH 6): greatly reduced rate | reaction rate with K-Ras(G12R)·GDP (K-Ras(G12R)·GDP; pH 8): reached maximum | reaction rate with K-Ras(G12R)·GDP (K-Ras(G12R)·GDP; pH 9): did not further increase | reversibility of adduct formation (K-Ras(G12R)·GDP; purified adduct incubated at pH 7.5 for 7 days at 23° C.): irreversible | modification of K-Ras(G12R)·GppNHp (K-Ras(G12R)·GppNHp): < 5% | covalent modification of wildtype K-Ras·GDP (wildtype (WT) K-Ras·GDP): did not modify | cellular activity [1]: did not show cellular activity | modification of exogenous recombinant K-Ras(G12R)·GDP added to lysate (K-Ras(G12R); after 16 h of incubation): complete modification | modification of endogenous K-Ras(G12R) in BaF3/K-Ras(G12R) lysates (K-Ras(G12R); lysate not pre-loaded with GDP): did not detect any modification | modification of endogenous K-Ras(G12R) in BaF3/K-Ras(G12R) lysates (K-Ras(G12R); lysates pre-loaded with excess GDP): covalent modification
